These results are taken from patent US20230265524A1, “IMMUNOGENIC RETROELEMENTS AND THEIR USE IN CANCER THERAPY” (UNIVERSITY HEALTH NETWORK, priority 2020, published 2023).

The test system of experiment [1] is patient-derived colorectal cancer cells (CRCs). The experiment is described as follows: total stranded RNA-seq of repeat element expression after 5-AZA-CdR. The settings on record: low doses of 5-AZA-CdR, 5 days, vs mock-treated. The experiment is classed as cell-based, human. The method, then:
A, Effect of 5-AZA-CdR on repeat element expression in patient-derived xenograft colorectal cancer cells after 5 days of treatment. Plots show log (fold change) for 5-AZA-CdR treated cells over mock-treated cells for anti-sense (y-axis) and sense (x-axis) transcripts of each SINE, LINE and ERV repeat element (CPM). […] The significance was determined as p≤0.05 and |log FC|≥1 at each strand.
To identify drug-induced immunogenic retroelements on a global scale, we examined the endogenous dsRNA formation in patient-derived colorectal cancer cells (CRCs) that were treated with low doses of 5-AZA-CdR, an FDA-approved DNMTi, or mock-treated. To this end, we performed total stranded RNA-seq and assessed repetitive elements transcribed in both strands, therefore likely to produce dsRNA species.

The subject of experiment [2] is H3K4me3 and H3K27ac upstream of treatment-induced IR-Alus. As to the kind of experiment: genome-wide CUT&RUN of H3K4me3 and H3K27ac at treatment-induced IR-Alus. The experiment is classed as cell-based, human. The settings on record: DNMTi treatment. An excerpt:
D, Heatmaps and average CUT & RUN profiles of H3K4me3 (left) and H3K27ac (right) signal at −50 kb/+50 kb (Upstream/downstream) of the Treatment-induced IR-Alu pairs regions. The orientation was based on the transcriptional orientation in the MDA5-protected RNA-seq data
Active promoters and enhancers are often marked by H3K4me3 and H3K27ac, respectively. […] Importantly, we assessed the DNA methylation status of these specific regulatory regions that became H3K4me3 marked upstream of the induced IR-Alus following epigenetic therapy and found the majority of these regions to be frequently methylated before treatment. We observed that 91% of these regions were either partially or fully methylated in the panel of 51 CRC cell lines (FIG. 6C) and 94% in the panel of 988 pan-cancer cell lines (FIG. 6D). Moreover, we observed that the DNA methylation status of these regulatory regions upstream of induced IR-Alus were inversely correlated (r=−0.23, p=7.58-13) with the expression of a panel of Interferon-Stimulated Genes (n=22 ISGs) from our viral mimicry signature^1 across the 988 pan-cancer cell lines (FIG. 6E).

A further experiment has as its system ADAR1. As to the kind of experiment: qPCR analysis of ADAR1 mRNA level and isoforms. The class given is cell-based, human. The method, then: C, qPCR analysis of total ADAR1 mRNA level after treatment with 5-AZA-CdR (300 nM, for 5 days) or transfection with 100 ng ml-1 poly(I:C) over a course of 24 days. Cells were washed out at day 5 and seeded in drug-free medium. Data are mean±s.e.m.****P<0.0001, Sidak-corrected two-way ANOVA.
A, ADAR1 isoforms (p110 and p150) relative expression analysed by qPCR. LACZ denotes ADAR1WT; PIC denotes 100 ng/ml poly (I:C) for 5 days; AZA denotes 300 nM 5-AZA-CdR for 5 days). Data are mean±s.e.m. (n=3 from three independent experiments). ***P<0.001, ****P<0.0001, Tukey-corrected two-way ANOVA.
To test this hypothesis, we first determined if ADAR1 depletion affects dsRNA formation by IR-Alus in untreated patient-derived CRCs. We generated ADAR1 knock-down CRCs using two different hairpin RNAs (ADAR1^KDA/B) and confirmed depletion of both the constitutively expressed (p110) and interferon-inducible (p150) ADAR1 isoforms (FIG. 8A). […] To determine if MDA5 ligands also increase upon ADAR1 depletion, we performed the MDA5 protection assay followed by RNA-Seq, as above. […] Again, these immunogenic Alus were primarily IR-Alu pairs unidirectionally transcribed in either the sense (+/+) or antisense (−/−) direction and induced upon ADAR1 depletion (FIG. 9C-J).
Next, we tested whether epigenetic therapy can induce and activate ADAR1 editing activity.

The test system of experiment [3] is LIM1215 colorectal cancer cell lines. As to the kind of experiment: ISG relative expression in LIM1215 cells. The class given is cell-based, human. The settings on record: LIM1215, ADAR1 KD vs WT, 300 nM for 5 days. On the procedure:
B) Interferon-stimulated genes (MDA5, IRF7 and DDX58) relative expression in ADAR1^WT and ADAR1^KD LIM1215 colorectal cancer cell lines treated with 300 nM 5-AZA-CdR for 5 days.
Based on these findings, we hypothesized that ADAR1 depletion would synergize with the viral mimicry response induced by DNMTi treatment. To assess how ADAR1 depletion affects 5-AZA-CdR treated samples, we performed RNA-seq analyses in patient-derived CRC cells. […] As a molecular read-out of dsRNA pattern recognition activation, we measured MAVS aggregation in the mitochondrial fraction of cell lysates^34. […] Taken together, our findings establish that ADAR1 acts as a negative feedback loop, restricting the viral mimicry response induced by DNMTi treatment in cancer cells.

Experiment [4] has as its system patient-derived xenograft CRC cells. As to the kind of experiment: subcutaneous patient-derived xenograft CRC tumour growth in NSG mice. The class given is in vivo. The settings on record: 0.5 mg kg-1 intraperitoneal. The method, then:
B, Schematic representation of in vivo experimental scheme of non-infected, ADAR1^WT, ADAR1^KDA and ADAR1^KDB patient-derived xenograft CRC cells injected subcutaneously into flanks of NSG mice (n=10 mice per group; 2 tumours per mouse). Arrows represent days of treatment (0.5 mg kg-1 5-AZA-CdR by intraperitoneal injection or vehicle).
C, Tumour volume measured at the indicated time points. Arrows represent days of treatment. ADAR1^KDA 5-AZA-CdR (n=20 tumours) and ADAR1^KDB 5-AZA-CdR (n=18 tumours at day 12 and n=14 tumours at day15) compared with non-infected (NI) 5-AZA-CdR (n=19 tumours) cohort. Data are mean±s.e.m. ****P<0.0001, Tukey-corrected two-way ANOVA
D, Colorectal cancer tumours dissected from Vehicle and 5-AZA-CdR cohorts at day 14 post-treatment are depicted for each condition (n=5) (NI=non-infected)
E, Tumour weight for each group at the time of dissection (day 14 after treatment). Data are mean±s.d. ****P<0.0001, Tukey-corrected ordinary-one-way ANOVA.
Finally, we sought to investigate whether ADAR1 inhibition would synergize with epigenetic therapy to increase the anti-tumour response. […] To examine the potential synergy in vivo, we injected ADAR1^KDA/B or wildtype patient-derived xenograft CRC cells subcutaneously into immune-deficient NOD.Cg-Prkdc (NSG) mice, and treated the mice with 5-AZA-CdR or vehicle (PBS) (FIG. 12B and FIG. 13A). […]

Turning to `Nc1ncn([C@H]2C[C@H](O)[C@@H](CO)O2)c(=O)n1` [5-AZA-CdR], the “sense and/or antisense transcription of repeat elements (LINEs, ERVs, SINEs)” value in experiment [1] was “increased sense and/or antisense transcription of long interspersed nuclear elements (LINEs) and ERVs, but not short interspersed nuclear elements (SINEs)”. The “H3K4me3 and H3K27ac levels directly upstream of treatment-induced immunogenic IR-Alus” value in experiment [2] is given as “elevated levels of H3K4me3, but not H3K27ac”. Moreover, the ADAR1 expression result in the experiment with ADAR1 (patient-derived CRCs, 300 nM for 5 days) is given as “up-regulated ADAR1 expression”. Also, in the experiment with ADAR1 (washed out at day 5, drug-free medium, 24 days course), the “duration of ADAR1 up-regulation after drug withdrawal” value is “sustained for about fourteen days after drug withdrawal”. Also, the “expression of IFN stimulated genes (ISGs)” value in experiment [3] is on record as “enhanced upon ADAR1 depletion”. In addition, the anti-tumour activity entry in experiment [4] (ADAR1^KDA/B cells) is on record as “remarkable anti-tumour activity”; in experiment [4] (wildtype cells), “very limited anti-tumour activity”.
